The values below come from ChEMBL document CHEMBL1152025, “Enzymatic asymmetric synthesis of (2R, 4R, 5S)-2-amino-4,5-(1,2-cyclohexyl)-7-phosphonoheptanoic acid, a potent, selective and competitive NMDA antagonist” (Bioorg Med Chem Lett, 1993).

Each structure is given as a SMILES string.

Assay [1] has as its target Glutamate [NMDA] receptor. The assay is described as follows: Tested for the inhibitory activity by the inhibition of excitatory L-[3H]Glutamate binding to NMDA recognition sites. Format: protein-complex assay.
Assay [2] has as its target Glutamate [NMDA] receptor. As to the kind of experiment: Tested for the inhibitory activity by the inhibition of excitatory [3H]CGS-19,755 binding to NMDA recognition sites. Format: protein-complex assay.
Assay [3] in a line: Tested for the ability to inhibit the pentylenetetrazole induced seizures against NMDA antagonist by intraperitoneal administration. Format: functional. Particulars: ip.
A short description of assay [4]: Tested for the ability to inhibit the NMDA induced seizures against NMDA antagonist by intraperitoneal administration. Format: functional. As to conditions: ip.
Assay [5] is described as follows: Tested for the ability to inhibit the maximal electroshock induced seizures against NMDA antagonist by intraperitoneal administration. In kind it is functional. Particulars: ip. (The maximal electroshock test induces tonic seizures with an electrical stimulus.)

A word on the IC50: it is the concentration at which inhibition is half-maximal. A low value points to greater potency. In general, ED50 refers to the dose at which the effect has come halfway, by size or by number of responders. A lower ED50 goes with greater potency.

On to `NC(CC1CCCCC1CCP(=O)(O)O)C(=O)O` (stereo unspecified), for which the results for the IC50 in assay [1] and in assay [2] were 1600 nM and 976 nM, respectively. In addition, the values for the ED50 in assay [3], in assay [4] and in assay [5] were 6.02 mg/kg, 12.4 mg/kg and over 15 mg/kg, respectively.
For `CC(=CC(N)C(=O)O)CP(=O)(O)O` (stereo unspecified) [CGP-37849], in that order: 25.7 nM, 18 nM, over 10 mg/kg, 3.41 mg/kg and 3.64 mg/kg.
Take `O=C(O)[C@H]1CN(CCCP(=O)(O)O)CCN1`: the IC50 in assay [1] was 321 nM; in assay [2] it was 86 nM.
Consider `N[C@H](C[C@@H]1CCCC[C@@H]1CCP(=O)(O)O)C(=O)O`, for which the IC50 is 3130 nM in assay [1] and 555 nM in assay [2].
Turning to `N[C@@H](C[C@H]1CCCC[C@H]1CCP(=O)(O)O)C(=O)O`, the 50% inhibitory concentration (IC50) in assay [1] stood at 2590 nM; in assay [2], 264 nM.
Turning to `O=C(O)[C@@H]1C[C@H](CP(=O)(O)O)CCN1` (single isomer, unassigned) [SELFOTEL], the ED50 in assay [3] stood at 29 mg/kg; in assay [4] it was 2.64 mg/kg; in assay [5], 12.9 mg/kg.
Consider `N[C@@H](C[C@@H]1CCCC[C@@H]1CCP(=O)(O)O)C(=O)O`, for which the concentration for half-maximal inhibition (IC50) in assay [1] is 6460 nM; in assay [2] it was 239 nM.
Regarding `N[C@H](C[C@H]1CCCC[C@H]1CCP(=O)(O)O)C(=O)O`, the results for the IC50 in assay [1] and in assay [2] were 607 nM and 148 nM, respectively. For the same compound, the ED50 came out at 4.51 mg/kg in assay [3], 2.68 mg/kg in assay [4] and 13.4 mg/kg in assay [5].
